According to ChEMBL document CHEMBL5143569:

Target: T1, Tyrosine-protein phosphatase non-receptor type 11 (Homo sapiens) (UniProt Q06124)
T1 sequence (whole entry): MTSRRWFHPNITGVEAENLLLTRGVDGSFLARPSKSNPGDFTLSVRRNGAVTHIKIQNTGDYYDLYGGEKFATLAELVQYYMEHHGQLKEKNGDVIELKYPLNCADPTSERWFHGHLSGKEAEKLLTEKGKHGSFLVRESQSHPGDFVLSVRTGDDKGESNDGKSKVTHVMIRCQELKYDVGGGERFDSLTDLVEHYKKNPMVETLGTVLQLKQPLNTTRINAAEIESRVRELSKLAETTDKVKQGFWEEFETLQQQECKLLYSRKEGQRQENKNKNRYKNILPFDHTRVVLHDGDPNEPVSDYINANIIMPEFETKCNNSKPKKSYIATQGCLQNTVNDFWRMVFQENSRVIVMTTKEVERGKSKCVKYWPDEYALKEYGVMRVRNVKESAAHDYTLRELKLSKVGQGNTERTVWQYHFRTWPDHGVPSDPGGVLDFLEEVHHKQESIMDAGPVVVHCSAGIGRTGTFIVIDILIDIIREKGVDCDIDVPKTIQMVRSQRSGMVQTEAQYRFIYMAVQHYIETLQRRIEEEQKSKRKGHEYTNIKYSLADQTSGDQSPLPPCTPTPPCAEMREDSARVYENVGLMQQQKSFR
Conditions: filed as negative allosteric modulator
Description: Allosteric inhibition of recombinant human SHP2 assessed as change in melting temperature by SYPRO orange dye based thermal shift assay

Compound | ΔTm [°C]
CC1(N)CCN(c2cnc(SCc3ccccc3)c(N)n2)CC1 | 0.38
CN(CCN)c1cnc(-c2cccc(Cl)c2Cl)c(N)n1 | 1.06
CC1(CN)CCN(c2cnc(Sc3cccc(Cl)c3Cl)c(N)n2)CC1 | 7.01
CC1(N)CCN(c2cnc(Sc3ccccc3F)c(N)n2)CC1 | 2.88
NCC1CCN(c2cnc(Sc3cccc(Cl)c3Cl)c(N)n2)CC1 | 4.93
CC1(N)CCN(c2cnc(Sc3cccc4ccccc34)c(N)n2)CC1 | 3.6
Cc1ccc(-c2ncc(N3CCC(C)(N)CC3)nc2N)cc1 | 0.42
CC1(N)CCN(c2cnc(SC3CCCCC3)c(N)n2)CC1 | 0.88
CC1(N)CCN(c2cnc(Sc3ccccc3)c(N)n2)CC1 | 1.72
CC1(N)CCN(c2cnc(-c3ccc(C#N)cc3)c(N)n2)CC1 | 0.275
Cc1ccccc1Sc1ncc(N2CCC(C)(N)CC2)nc1N | 1.75
CC1(N)CCN(c2cnc(Sc3ccccc3Cl)c(N)n2)CC1 | 4.13
CC1(N)CCN(c2cnc(Sc3ccccc3C(F)(F)F)c(N)n2)CC1 | 3.45
CC1(N)CCN(c2cnc(Sc3cccc(Cl)c3)c(N)n2)CC1 | 1.7
CC1(N)CCN(c2cnc(Sc3ccc4ccccc4c3)c(N)n2)CC1 | 2.23
COc1ccccc1Sc1ncc(N2CCC(C)(N)CC2)nc1N | 3.79
CC1(N)CCN(c2cnc(Sc3ccccc3Br)c(N)n2)CC1 | 4.47
CC1(N)CCN(c2cnc(Sc3ccc(Cl)cc3)c(N)n2)CC1 | 0.43
CC1(N)CCN(c2cnc(SCc3ccccc3Cl)c(N)n2)CC1 | 0.44

Results, then the compound that gave them:

ΔTm [°C] | Compound
1.92 | Nc1nc(N2CC[C@H](N)C2)cnc1-c1cccc(Cl)c1Cl
3.01 | Nc1nc(N2CCNCC2)cnc1-c1cccc(Cl)c1Cl
0.52 | CC1(N)CCN(c2cnc(-c3cccc(F)c3F)c(N)n2)CC1
3.67 | NCC1CCN(c2cnc(-c3cccc(Cl)c3Cl)c(N)n2)CC1
1.72 | Nc1nc(N2CCC(N)CC2)cnc1-c1cccc(Cl)c1Cl
0.36 | Nc1nc(N2CCC(O)CC2)cnc1-c1cccc(Cl)c1Cl
6.24 | CC1(N)CCN(c2cnc(Sc3cccc(Cl)c3Cl)c(N)n2)CC1
3.06 | CNC1CCN(c2cnc(-c3cccc(Cl)c3Cl)c(N)n2)CC1
4.37 | CC1(N)CCN(c2cnc(-c3cccc(Cl)c3Cl)c(N)n2)CC1
0.435 | CC1(O)CCN(c2cnc(-c3cccc(Cl)c3Cl)c(N)n2)CC1
3.2 | CN1CCN(c2cnc(-c3cccc(Cl)c3Cl)c(N)n2)CC1
2.31 | NCCC1CCN(c2cnc(-c3cccc(Cl)c3Cl)c(N)n2)CC1
